For 61 molecules, IC50, IC90 and CC50 results are on record in PubChem BioAssay AID1626 (SRMLSC, 2009).

Bounds are passed on as bounds.

The experiment relates to M. tuberculosis H37Rv growth inhibition. Kind of experiment: M. tuberculosis H37Rv growth inhibitors, H37Rv strain (AID 1626). Conditions: for IC90: measured here: IC90 against H37Rv; for CC50: measured here: Vero cell cytotoxicity.

As to `O=c1[nH]c(-c2ccccn2)nc(C(F)(F)F)c1Br`, the IC50 (usually the concentration needed to halve the response being measured) was 0.487 µM; the IC90 (usually the concentration needed for an effect of 90%) is 1.02 µM; the half-maximal cytotoxic concentration (CC50) (as a rule, the concentration giving 50% cytotoxicity) came out at 33.4 µM.
On to `c1csc(Cc2nn3c(-c4n[nH]c5c4CCC5)nnc3s2)c1`, for which the 50% inhibitory concentration (IC50) was 0.412 µM, the IC90 is 11 µM and the CC50 was more than 40 µM.
`COc1ccc2ncc(OC(C)=O)cc2c1` returned an IC90 of more than 100 µM.
`O=S1(=O)C=C(Sc2nc3cc(Cl)ccc3o2)c2ccccc21`: the IC50 is 2.9 µM, the IC90 is 3.18 µM and the CC50 turned out to be 16.1 µM.
On to `CCOc1ccc(-c2csc(/C(C#N)=C\c3ccc(O)c([N+](=O)[O-])c3)n2)cc1`, for which the concentration for half-maximal inhibition (IC50) is 8.54 µM, the IC90 was found to be 14.9 µM and the CC50 stood at 10.9 µM.
Regarding `Clc1cccc(-c2nc(NCCN3CCOCC3)c3ccccc3n2)c1`, the IC50 was 12.6 µM, the concentration for an effect of 90% (IC90) was found to be 17.6 µM and the half-maximal cytotoxic concentration (CC50) was more than 40 µM.
For `Cc1cc2oc3c(c(=O)c2cc1C)C(c1cccc(Br)c1)N(Cc1ccco1)C3=O` (centres undefined), the IC50 is 5.92 µM, the 90% effect concentration (IC90) is more than 100 µM and the CC50 amounted to 13.9 µM.
Turning to `CCOC(=O)CNC(=O)CSc1nc(-c2cccc(C)c2)ns1`, the IC50 was 1.5 µM and the IC90 is 8.29 µM.
For the molecule `Cc1ccc(-c2nc(NCc3ccco3)c3ccccc3n2)cc1`, the half-inhibitory concentration (IC50) was 9.38 µM, the IC90 was found to be 16.2 µM and the cytotoxic concentration (CC50) is more than 40 µM.
For the molecule `CC(C)(c1ccccc1)c1ccc(OCC(O)CNC2CCN(Cc3ccccc3)CC2)cc1` (centres undefined), the IC50 was 4.53 µM, the concentration for an effect of 90% (IC90) came out at 6.06 µM and the half-maximal cytotoxic concentration (CC50) stood at 6.22 µM.
`COc1ccc(CNCc2cn(-c3cccc(F)c3)nc2-c2ccc(C)o2)cc1`: the half-maximal inhibitory concentration (IC50) was 6.12 µM, the IC90 was 10.5 µM and the CC50 was more than 40 µM.
With `CN(C)c1ccc(O)c2c1CC1CC3[C@@H](N(C)C)C(=O)C(C(N)=O)=C(O)[C@]3(O)C(=O)C1=C2O` (some centres undefined), the IC50 was 3.14 µM, the concentration for an effect of 90% (IC90) stood at 7.87 µM and the CC50 was more than 40 µM.
Consider `Cc1cccc(N=C2NN=C(c3c(C)[nH]c4ccccc34)CS2)c1`, for which the concentration for half-maximal inhibition (IC50) was 10.4 µM, the IC90 stood at 16.3 µM and the CC50 came out at 38.6 µM.
As to `Cc1ccc(C(C)C)c(OCc2nn(CC(=O)c3ccc(OC(F)F)cc3)c3[n+]2CCCCC3)c1`, the 50% inhibitory concentration (IC50) is 1.07 µM, the IC90 turned out to be 1.46 µM and the CC50 was more than 40 µM.
As for `CCOc1ccc(CN2CCN(CC(O)Cn3c4ccccc4c4ccccc43)CC2)cc1` (centres undefined), the IC50 is 4.35 µM, the IC90 was determined as 6.2 µM and the cytotoxic concentration (CC50) came to 13.6 µM.
Regarding `CC1CCC(C(C)C)C(OC(=O)Cn2c(-c3ccc(F)cc3)[n+](C)c3ccccc32)C1` (centres undefined), the concentration for half-maximal inhibition (IC50) is 6.98 µM and the IC90 is 11.4 µM.
As for `CN1/C(=C/C(=O)c2nc(S(C)(=O)=O)ncc2Cl)C(C)(C)c2ccccc21`, the IC50 was 12 µM, the IC90 turned out to be 13.7 µM and the 50% cytotoxic concentration (CC50) was more than 40 µM.
`CC(C)OC(=O)c1ccc(N)cc1`: the IC50 was 30.1 µM and the IC90 was more than 100 µM.
For the molecule `COc1ccc(/C=C2\Sc3ccc(C(=O)NCc4cccnc4)cc3N(C)C2=O)cc1OC`, the IC50 was 13 µM and the IC90 was 31.1 µM.
Turning to `CC(C)Oc1ccc(C(=O)Nc2ccc(Cl)c(S(=O)(=O)Nc3ccc(Cl)cc3)c2)cc1`, the IC50 was 11.6 µM, the concentration for an effect of 90% (IC90) was 22.4 µM and the CC50 came to 28.9 µM.
`S=c1[nH]cnc2sc(-c3ccccc3)cc12`: the IC50 was 8.3 µM and the IC90 was more than 100 µM.
Take `Cc1ccccc1-c1nc2cc(N)ccc2o1`: the IC50 is 15.3 µM and the IC90 is more than 100 µM.
Take `Cc1nc(N2CCN(c3ccccn3)CC2)c2c(C)c(C(=O)Nc3ccccc3F)sc2n1`: the 50% inhibitory concentration (IC50) was 8.96 µM, the IC90 is more than 100 µM and the CC50 is more than 40 µM.
Regarding `CC1CC(C)CN(C(=O)COC(=O)c2cc3ccccc3cc2O)C1` (centres undefined), the IC50 was 0.592 µM and the 90% effect concentration (IC90) turned out to be 4.29 µM.
In the case of `Cc1ccc(Nc2nc(N3CCN(C)CC3)nc(N)c2[N+](=O)[O-])cc1C`, the 50% inhibitory concentration (IC50) was 9.67 µM and the IC90 turned out to be 14.5 µM.
With `COC(=O)CSc1nnc(-c2sc3ccccc3c2Cl)o1`, the IC50 was 8.67 µM and the concentration for an effect of 90% (IC90) turned out to be 36.2 µM.
Regarding `COc1cccc2c1C(=O)c1c(O)c3c(c(O)c1C2=O)C[C@@](O)(C(=O)CO)C[C@@H]3O[C@H]1C[C@H](N)[C@@H](O)[C@H](C)O1`, the IC50 is 14.9 µM, the IC90 is 26.4 µM and the CC50 is 7.47 µM.
For `FC(F)(F)c1nnc(-c2ccccc2)nc1Sc1ccccc1`, the IC50 is 21.9 µM, the IC90 was found to be 25.3 µM and the 50% cytotoxic concentration (CC50) was more than 40 µM.
In the same order, the values of `CCC(=O)OCCNc1cc(Sc2nccn2C)c2nonc2c1[N+](=O)[O-]` are 20.2 µM, 27.4 µM and 18.3 µM.
For the molecule `O=C(CCN1C(=O)C2CCCCC2C1=O)Nc1nc(-c2ccc(F)c(F)c2)cs1` (centres undefined), the 50% inhibitory concentration (IC50) was 47.5 µM and the IC90 was more than 100 µM.
As for `Cc1cccc(N2CCN(C(=O)c3ccc4nc(N5CCCCC5)sc4c3)CC2)c1C`, the IC50 is 7.98 µM, the IC90 came to 11.2 µM and the CC50 was more than 40 µM.
Consider `Cc1ccc(-c2nc(C(Cl)Cl)c3ccccc3n2)cc1`, for which the IC50 is 4.4 µM, the IC90 was found to be 12.1 µM and the CC50 was found to be 0.923 µM.
With `O=C(COC(=O)/C=C/c1cccs1)Nc1ccc2ccccc2c1`, the IC50 is 90.8 µM and the 90% effect concentration (IC90) was more than 100 µM.
`COc1cc(OC)cc(C(=O)Nc2nc(-c3ccccc3)c(-c3ccccc3)o2)c1`: the IC50 was 0.322 µM, the IC90 was determined as 4.94 µM and the CC50 was 30.9 µM.
Consider `O=C(Nc1nnc(-c2ccc(F)cc2)o1)c1cccc([N+](=O)[O-])c1`, for which the IC50 was 5.68 µM, the 90% effect concentration (IC90) was found to be 14.8 µM and the cytotoxic concentration (CC50) was 12.4 µM.
Regarding `COC(=O)C(Oc1ccc2c(-c3ccc(OC)cc3)cc(=O)oc2c1)c1ccccc1` (centres undefined), the IC50 was 15.4 µM and the IC90 came to 20.9 µM.
In the case of `O=C(CSc1nccc(=O)[nH]1)Nc1ccc(Br)c(Cl)c1`, the IC50 was 40.6 µM and the IC90 was more than 100 µM.
In the same order, the values of `CCC(=O)Nc1ccc(-c2nc3ccccc3c(=O)o2)cc1` are 18 µM and 84 µM.
On to `Cc1ccc2c(c1C)NC(=O)C21N2CCCC2C(C(=O)c2ccc3ccccc3c2)C12C(=O)Nc1ccccc12` (centres undefined), for which the concentration for half-maximal inhibition (IC50) is 39.3 µM, the 90% effect concentration (IC90) is more than 100 µM and the CC50 was more than 40 µM.
As to `Cc1ccc(NC(=O)/C=C/c2ccc([N+](=O)[O-])s2)c(C)c1`, the 50% inhibitory concentration (IC50) was 1.79 µM, the IC90 came to 4.42 µM and the half-maximal cytotoxic concentration (CC50) worked out at 19.5 µM.
For the molecule `COc1ccc(C(C)(C)C)cc1NC(=O)COC(=O)c1cc(SC)ccc1Cl`, the IC50 is 54.6 µM and the 90% effect concentration (IC90) is more than 100 µM.
For `Cc1c(C(=O)Oc2cccc3cccnc23)cccc1[N+](=O)[O-]`, the concentration for half-maximal inhibition (IC50) is 6.52 µM, the 90% effect concentration (IC90) is 7.5 µM and the CC50 was more than 40 µM.
Take `Cc1sc2nc(CN3CCOCC3)[nH]c(=S)c2c1C`: the IC50 was 13.3 µM, the IC90 was more than 100 µM and the half-maximal cytotoxic concentration (CC50) was more than 40 µM.
The molecule `CC1(C)CC(=O)C(C=Nc2ccc3c(c2)OCO3)=C(O)C1` returned an IC90 of more than 100 µM.
As for `CC(C)(C)c1ccc(C(=O)/C=C2\NC(=O)CS2)cc1`, the half-inhibitory concentration (IC50) was 11.8 µM, the 90% effect concentration (IC90) was more than 100 µM and the CC50 is more than 40 µM.
In the same order, the values of `Clc1ccc(SCc2cc(N3CCOCC3)nc(-c3ccccn3)n2)cc1` are 8.83 µM, 41.6 µM and 12.2 µM.
In the case of `Cc1cccc(NC(=O)c2ccc([N+](=O)[O-])o2)c1C`, the IC50 was 12.2 µM, the IC90 was 23.9 µM and the CC50 was determined as 11.5 µM.
As to `Cc1cc(C)n(-c2nc(N(c3ccccc3)c3ccccc3)nc(-n3nc(C)cc3C)n2)n1`, the concentration for half-maximal inhibition (IC50) is 2.76 µM, the concentration for an effect of 90% (IC90) was determined as 10.4 µM and the CC50 was more than 40 µM.
Consider `CC(Oc1ccc(Cl)cc1Cl)c1nc(-c2ccc(NC(=O)c3ccncc3)cc2)no1` (centres undefined), for which the half-inhibitory concentration (IC50) is 33.5 µM, the concentration for an effect of 90% (IC90) is more than 100 µM and the CC50 is more than 40 µM.
With `COc1ccc(CCNC(=O)NC23CC4CC(CC(C4)C2)C3)cc1`, the half-maximal inhibitory concentration (IC50) was 12.9 µM, the IC90 is more than 100 µM and the CC50 is more than 40 µM.
Regarding `CCOC(=O)COc1ccc2c(C#N)c3ccccn3c2c1`, the half-maximal inhibitory concentration (IC50) was 1.67 µM and the concentration for an effect of 90% (IC90) worked out at 8.66 µM.
Regarding `O=c1c2c(nc3c(-c4ccc(Cl)cc4)c[nH]n13)CCC2`, the half-inhibitory concentration (IC50) is 12.9 µM, the IC90 was 25.6 µM and the 50% cytotoxic concentration (CC50) worked out at 18.9 µM.
In the same order, the values of `Cc1ccc2[nH]c3c(N4CCc5ccccc5C4)ncnc3c2c1` are 11.8 µM, 25.8 µM and 10.8 µM.
For `CC(=O)n1cc(N(C(=O)CCl)c2ccc(Cl)cc2)c2ccccc21`, the IC50 was 8.88 µM, the concentration for an effect of 90% (IC90) was determined as 19.6 µM and the CC50 stood at 0.662 µM.
For `COc1ccc(CNc2ncnc3cc(Cl)ccc23)cc1`, the IC50 was 58.5 µM and the 90% effect concentration (IC90) was more than 100 µM.
For `CCOc1ccc(Nc2nc(N)nc(CCl)n2)cc1`, the IC50 was 23.2 µM, the IC90 is more than 100 µM and the CC50 amounted to 0.194 µM.
Consider `COc1cccc2sc(Nc3nnc(-c4ccc(F)cc4)o3)nc12`, for which the IC50 was 9.19 µM, the concentration for an effect of 90% (IC90) was 11.8 µM and the CC50 is 16 µM.
For the molecule `COc1cccc(C(=O)Nc2ccc(-c3nc4ccccc4o3)c(O)c2)c1`, the IC50 is 8.7 µM, the IC90 was more than 100 µM and the CC50 is more than 40 µM.
Turning to `CCCCNC(=O)c1cc2n(n1)C(C(F)(F)F)CC(c1ccccc1)N2` (centres undefined), the IC50 was 0.363 µM and the IC90 came to 4.14 µM.
Consider `O=C(O)c1ccc(N2C(=O)/C(=C/c3ccc(-c4ccc([N+](=O)[O-])cc4)o3)C=C2c2ccccc2)cc1`, for which the IC50 was 19 µM, the IC90 turned out to be 26.5 µM and the CC50 is 20.1 µM.
As for `CCOc1ccc(N2C(=O)c3ccc(C(=O)OCC(=O)N(CC)C4CCS(=O)(=O)C4)cc3C2=O)cc1` (centres undefined), the concentration for an effect of 90% (IC90) was more than 100 µM.
